Source: US12291518B2, “Thyroid hormone receptor agonists and use thereof” (Eccogene Inc., priority 2020, dated 2025)

What was measured:
[1] = target: T1, THR beta-LBD (Homo sapiens, UniProt P10828); assay: THR-β Coactivator Peptide Recruitment Assay (LanthaScreen TR-FRET); format: biochemical; conditions: TR-FRET coactivator recruitment, THR beta-LBD 0.5 nM; for EC50: read-out: THRβ EC50
T1 construct: THR beta-LBD (the final concentration is 0.5 nM) was added to the 384-well assay plate; purchased Invitrogen PV4686
T1 sequence (P10828 217-461 limits assumed): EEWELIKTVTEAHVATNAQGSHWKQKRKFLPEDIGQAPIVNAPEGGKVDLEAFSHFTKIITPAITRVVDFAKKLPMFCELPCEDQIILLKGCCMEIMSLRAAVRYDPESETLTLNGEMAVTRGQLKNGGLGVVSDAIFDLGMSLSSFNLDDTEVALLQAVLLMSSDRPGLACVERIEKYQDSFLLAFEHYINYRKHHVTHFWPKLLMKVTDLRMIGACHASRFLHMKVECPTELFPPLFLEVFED
In short: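 GST-tagged THR beta-LBD (0.5 nM) with test compound recruits fluorescein-SRC2-2 coactivator peptide (0.1 nM), detected with Tb-anti-GST antibody (2 nM).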

[2] = target: T2, THR alpha-LBD (Homo sapiens, UniProt P10827); assay: THR-α Coactivator Peptide Recruitment Assay (LanthaScreen TR-FRET); format: biochemical; conditions: TR-FRET coactivator recruitment, THR alpha-LBD 0.25 nM; for EC50: read-out: THRα EC50
T2 construct: except that THR alpha-LBD of a final concentration 0.25 nM was used; purchased Invitrogen PV4687
T2 sequence (P10827 163-410 isoform P10827-2 limits assumed, other chains not shown): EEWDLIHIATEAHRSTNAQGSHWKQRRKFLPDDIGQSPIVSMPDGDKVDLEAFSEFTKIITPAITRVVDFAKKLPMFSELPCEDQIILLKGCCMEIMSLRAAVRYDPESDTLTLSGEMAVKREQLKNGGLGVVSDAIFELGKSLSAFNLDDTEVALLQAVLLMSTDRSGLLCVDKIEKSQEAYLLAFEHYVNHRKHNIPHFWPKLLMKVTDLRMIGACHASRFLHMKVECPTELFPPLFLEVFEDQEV
In short: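 TR-FRET coactivator recruitment with THR alpha-LBD at 0.25 nM final, Fluorescein-SRC2-2 peptide 0.1 nM and Tb-labeled anti-GST antibody 2 nM; 2 h incubation at room temperature. 520/495 nm emission ratio fitted to a four-parameter sigmoidal curve to give EC50.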

Row | THRβ Emax [1] | EC50 [1] [nM] | THRα Emax [2] | EC50 [2] [nM] | SMILES
1 | B (75~90) | 2 to 20 | B (40~85) | 2 to 200 | O=C(NC1CCC1)c1cc(Oc2c(Cl)cc(-n3nc(C(F)F)c(=O)[nH]c3=O)cc2Cl)ncc1O [Compound 145, N-cyclobutyl-2-[2,6-dichloro-4-[6-(difluoromethyl)-3,5-dioxo-1,2,4-triazin-2-yl]phenoxy]-5-hydroxy-pyridine-4-carboxamide]
2 | A (90~110) | 2 to 20 | A (85~110) | 2 to 200 | CS(=O)(=O)c1cc(Oc2c(Cl)cc(-n3nc(C(F)F)c(=O)[nH]c3=O)cc2Cl)ncc1O [Compound 146, 2-[3,5-dichloro-4-[(5-hydroxy-4-methylsulfonyl-2-pyridyl)oxy]phenyl]-6-(difluoromethyl)-1,2,4-triazine-3,5-dione]
3 | A (90~110) | 20 to 100 | B (40~85) | 200 to 1000 | CS(=O)(=O)c1cc(Oc2c(Cl)cc(-n3nc(C#N)c(=O)[nH]c3=O)cc2Cl)ncc1O [Compound 147, 2-[3,5-dichloro-4-[(5-hydroxy-4-methylsulfonyl-2-pyridyl)oxy]phenyl]-3,5-dioxo-1,2,4-triazine-6-carbonitrile]
4 | B (75~90) | 2 to 20 | A (85~110) | 2 to 200 | O=c1[nH]c(=O)n(-c2cc(Cl)c(Oc3cc(S(=O)(=O)NC4CS(=O)(=O)C4)c(O)cn3)c(Cl)c2)nc1C(F)F [Compound 148, 2-[2,6-dichloro-4-[6-(difluoromethyl)-3,5-dioxo-1,2,4-triazin-2-yl]-phenoxy]-N-(1,1-dioxothietan-3-yl)-5-hydroxy-pyridine-4-sulfonamide]
5 | C (<75) | > 100 | C (<40) | > 1000 | N#Cc1cc(O)c(S(=O)(=O)N[C@H]2C[C@H](O)C2)cc1Oc1c(Cl)cc(-n2nc(C(F)F)c(=O)[nH]c2=O)cc1Cl [Compound 149, 4-cyano-5-[2,6-dichloro-4-[6-(difluoromethyl)-3,5-dioxo-1,2,4-triazin-2-yl]phenoxy]-2-hydroxy-N-(3-hydroxycyclobutyl)benzenesulfonamide]
6 | A (90~110) | 2 to 20 | A (85~110) | 2 to 200 | N#Cc1nn(-c2cc(Cl)c(Oc3cc(S(=O)(=O)NC4CCC4)c(O)cn3)c(Cl)c2)c(=O)[nH]c1=O [Compound 150]
7 | A (90~110) | < 2 | A (85~110) | 2 to 200 | CCS(=O)(=O)c1cc(Oc2c(Cl)cc(-n3nc(C(F)F)c(=O)[nH]c3=O)cc2Cl)ncc1O [Compound 151, 2-[3,5-dichloro-4-[(4-ethylsulfonyl-5-hydroxy-2-pyridyl)oxy]phenyl]-6-(difluoromethyl)-1,2,4-triazine-3,5-dione]
8 | A (90~110) | < 2 | A (85~110) | < 2 | O=c1[nH]c(=O)n(-c2cc(Cl)c(Cc3ccc(O)c(S(=O)(=O)NC4CS(=O)(=O)C4)c3)c(Cl)c2)nc1C(F)F [Compound 152, 5-[[2,6-dichloro-4-[6-(difluoromethyl)-3,5-dioxo-1,2,4-triazin-2-yl]phenyl]methyl]-N-(1,1-dioxothietan-3-yl)-2-hydroxy-benzenesulfonamide]
9 | A (90~110) | < 2 | A (85~110) | 2 to 200 | O=c1[nH]c(=O)n(-c2cc(Cl)c(Oc3cc(S(=O)(=O)C4CCC4)c(O)cn3)c(Cl)c2)nc1C(F)F [Compound 153, 2-[3,5-dichloro-4-[(4-cyclobutylsulfonyl-5-hydroxy-2-pyridyl)-oxy]phenyl]-6-(difluoromethyl)-1,2,4-triazine-3,5-dione]
10 | B (75~90) | 2 to 20 | B (40~85) | 200 to 1000 | CS(=O)(=O)Cc1cc(Oc2c(Cl)cc(-n3nc(C(F)F)c(=O)[nH]c3=O)cc2Cl)ncc1O [Compound 154, 2-[3,5-dichloro-4-[[5-hydroxy-4-(methylsulfonylmethyl)-2-pyridyl]oxy]phenyl]-6-(difluoromethyl)-1,2,4-triazine-3,5-dione]
11 | A (90~110) | 2 to 20 | B (40~85) | > 1000 | O=c1[nH]c(=O)n(-c2cc(Cl)c(Cc3cc(S(=O)(=O)N[C@H]4C[C@H](O)C4)c(O)cn3)c(Cl)c2)nc1C(F)F [Compound 156, 2-(2,6-dichloro-4-(6-(difluoromethyl)-3,5-dioxo-4,5-dihydro-1,2,4-triazin-2 (3H)-yl)benzyl)-5-hydroxy-N-((1r,3r)-3-hydroxycyclobutyl)pyridine-4-sulfonamide]
12 | A (90~110) | < 2 | A (85~110) | 2 to 200 | O=c1[nH]c(=O)n(-c2cc(Cl)c(Oc3cc(S(=O)(=O)NC4COC4)c(O)cn3)c(Cl)c2)nc1C(F)F [Compound 158, 2-(2,6-dichloro-4-(6-(difluoromethyl)-3,5-dioxo-4,5-dihydro-1,2,4-triazin-2(3H)-yl)phenoxy)-5-hydroxy-N-(oxetan-3-yl)pyridine-4-sulfonamide]
13 | B (75~90) | 20 to 100 | B (40~85) | 200 to 1000 | O=c1[nH]c(=O)n(-c2cc(Cl)c(Oc3cc(S(=O)(=O)NC45CCC(O)(C4)C5)c(O)cn3)c(Cl)c2)nc1C(F)F [Compound 159, 2-(2,6-dichloro-4-(6-(difluoromethyl)-3,5-dioxo-4,5-dihydro-1,2,4-triazin-2(3H)-yl)phenoxy)-5-hydroxy-N-(4-hydroxybicyclo[2.1.1]hexan-1-yl)pyridine-4-sulfonamide]
14 | B (75~90) | 20 to 100 | B (40~85) | > 1000 | O=c1[nH]c(=O)n(-c2cc(Cl)c(Oc3cc(S(=O)(=O)NC45CCC(O)(CC4)C5)c(O)cn3)c(Cl)c2)nc1C(F)F [Compound 160, 2-(2,6-dichloro-4-(6-(difluoromethyl)-3,5-dioxo-4,5-dihydro-1,2,4-triazin-2(3H)-yl)phenoxy)-5-hydroxy-N-(4-hydroxybicyclo[2.2.1]heptan-1-yl)pyridine-4-sulfonamide]
15 | B (75~90) | 20 to 100 | B (40~85) | 200 to 1000 | Cc1nn(-c2cc(Cl)c(Oc3cc(S(=O)(=O)N[C@H]4C[C@H](O)C4)c(O)cn3)c(Cl)c2)c(=O)[nH]c1=O [Compound 161, 2-(2,6-dichloro-4-(6-methyl-3,5-dioxo-4,5-dihydro-1,2,4-triazin-2(3H)-yl)phenoxy)-5-hydroxy-N-((1r,3r)-3-hydroxycyclobutyl)pyridine-4-sulfonamide]
16 | B (75~90) | > 100 | C (<40) | > 1000 | Cc1nn(-c2cc(Cl)c(Oc3cc(S(=O)(=O)N[C@H]4C[C@@H](O)C4)c(O)cn3)c(Cl)c2)c(=O)[nH]c1=O [Compound 162, 2-(2,6-dichloro-4-(6-methyl-3,5-dioxo-4,5-dihydro-1,2,4-triazin-2(3H)-yl)phenoxy)-5-hydroxy-N-((1s,3s)-3-hydroxycyclobutyl)pyridine-4-sulfonamide]
